Data as given in US11306067B2, “Diphenyl substituted thiophene-2-amide derivatives and pharmaceutical compositions thereof useful as antimicrobial” (DENOVAMED INC., priority 2018, dated 2022).

Key:
[1] = tested on: E. coli ATCC 25922; design: unit not given beside the values; conditions: colistin alone, unexplained range under the value, probably reference range; cited from earlier work
[2] = tested on: Klebsiella pneumoniae (Colistin Sensitive) MMX214; experiment: Combination MIC of colistin for antibiotic adjuvant potential; format: cell-based; conditions: colistin alone; K. pneumoniae colistin sensitive MMX214
Procedure: (§1) The MIC of colistin was determined against the bacteria specified below, by itself or in the presence of 1 ug/ml or 10 ug/ml of a compound disclosed herein (nd=not determined): […]

[3] = tested on: Klebsiella pneumoniae (Colistin Resistant) MMX8390; experiment: as above; format: cell-based; conditions: colistin alone; K. pneumoniae colistin resistant MMX8390
Procedure: as §1

[4] = tested on: E. coli ATCC 25922; experiment: as above; format: cell-based; design: unit not given beside the values; conditions: colistin alone
Procedure: as §1

[5] = tested on: Acinetobacter Baumannii ATCC 19606; experiment: as above; format: cell-based; design: unit not given beside the values; conditions: colistin alone; Acinetobacter ATCC 19606
Procedure: as §1

[6] = tested on: Pseudomonas aeurginosa ATCC 27853; experiment: as above; format: cell-based; design: unit not given beside the values; conditions: colistin alone; Pseudomonas ATCC 27853
Procedure: as §1

Substance: colistin
- MIC of colistin, range in parentheses [1]: (0.25-2)
- MIC of colistin [2]: 2
- MIC of colistin [3]: 16
- MIC of colistin [4]: 0.25
- MIC of colistin [5]: 0.25
- MIC of colistin [6]: 0.25
